Target: ATP-binding cassette sub-family C member 2 (Rattus norvegicus, UniProt Q63120)
Assay: TP_TRANSPORTER: inhibition of DNP-SG uptake in bile canalicular membrane vesicles from SD rat
Format: functional, cell membranes, Sprague-Dawley, Bile canalicular membrane vesicle

Sequence of ATP-binding cassette sub-family C member 2 (Q63120 whole entry): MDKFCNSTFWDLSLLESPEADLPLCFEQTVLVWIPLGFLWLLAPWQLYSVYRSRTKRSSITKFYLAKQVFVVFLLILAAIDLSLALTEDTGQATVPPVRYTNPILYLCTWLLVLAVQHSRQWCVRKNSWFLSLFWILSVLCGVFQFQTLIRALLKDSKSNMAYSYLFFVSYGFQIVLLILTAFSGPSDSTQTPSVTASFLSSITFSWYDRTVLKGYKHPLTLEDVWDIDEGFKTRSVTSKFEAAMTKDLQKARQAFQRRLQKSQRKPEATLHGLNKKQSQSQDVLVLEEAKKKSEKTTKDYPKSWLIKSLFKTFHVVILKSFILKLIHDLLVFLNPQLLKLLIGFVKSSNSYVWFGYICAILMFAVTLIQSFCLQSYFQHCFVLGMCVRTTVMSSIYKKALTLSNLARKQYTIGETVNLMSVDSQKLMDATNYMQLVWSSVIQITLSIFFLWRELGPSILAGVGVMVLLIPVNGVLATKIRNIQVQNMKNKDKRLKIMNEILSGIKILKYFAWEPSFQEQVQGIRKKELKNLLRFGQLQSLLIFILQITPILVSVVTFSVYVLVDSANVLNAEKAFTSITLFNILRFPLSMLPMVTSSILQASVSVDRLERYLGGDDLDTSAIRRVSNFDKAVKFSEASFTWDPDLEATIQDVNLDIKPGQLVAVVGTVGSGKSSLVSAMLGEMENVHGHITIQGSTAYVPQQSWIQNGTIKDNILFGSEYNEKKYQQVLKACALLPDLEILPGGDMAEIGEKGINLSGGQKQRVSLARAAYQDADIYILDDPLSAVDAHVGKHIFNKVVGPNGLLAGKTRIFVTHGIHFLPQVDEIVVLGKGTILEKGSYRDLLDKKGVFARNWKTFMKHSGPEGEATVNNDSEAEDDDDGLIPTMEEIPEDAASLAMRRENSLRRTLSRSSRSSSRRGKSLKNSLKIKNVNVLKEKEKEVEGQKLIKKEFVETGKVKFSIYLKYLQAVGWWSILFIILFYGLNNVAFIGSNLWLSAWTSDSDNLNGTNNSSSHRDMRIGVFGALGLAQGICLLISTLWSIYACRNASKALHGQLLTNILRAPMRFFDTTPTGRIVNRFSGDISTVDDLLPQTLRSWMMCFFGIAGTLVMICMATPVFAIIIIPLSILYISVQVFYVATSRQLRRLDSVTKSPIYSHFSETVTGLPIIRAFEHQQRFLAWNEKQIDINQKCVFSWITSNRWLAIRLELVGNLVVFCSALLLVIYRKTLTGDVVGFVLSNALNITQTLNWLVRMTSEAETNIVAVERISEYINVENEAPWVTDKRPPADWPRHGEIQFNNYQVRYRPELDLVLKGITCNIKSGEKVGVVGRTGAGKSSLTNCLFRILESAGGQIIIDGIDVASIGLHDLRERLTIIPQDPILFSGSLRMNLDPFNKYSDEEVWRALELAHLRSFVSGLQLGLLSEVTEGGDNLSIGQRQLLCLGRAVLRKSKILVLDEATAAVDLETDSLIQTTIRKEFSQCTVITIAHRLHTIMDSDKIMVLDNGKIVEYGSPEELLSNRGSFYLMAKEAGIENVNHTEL

Row | Structure (SMILES) | Ki [µM]
1 | Nc1nc(N)c2nc(CN3CCOc4cc(C(=O)NC(CCCC(=O)O)C(=O)O)ccc43)cnc2n1 (stereo not given) | 204
2 | Nc1nc(N)c2nc(CN3CCOc4cc(C(=O)NC(CCC(=O)O)C(=O)O)ccc43)cnc2n1 (stereo not given) | 311
3 | Nc1nc(N)c2nc(CN3CCSc4cc(C(=O)NC(CCC(=O)O)C(=O)O)ccc43)cnc2n1 (stereo not given) | 137
4 | Cc1cc(C(=O)NC(CCC(=O)O)C(=O)O)cc2c1N(Cc1cnc3nc(N)nc(N)c3n1)CC2 (stereo not given) | 173
5 | Nc1nc(N)c2nc(CN3CCSc4cc(C(=O)N[C@@H](CCCC(=O)N[C@@H](CCC(=O)O)C(=O)O)C(=O)O)ccc43)cnc2n1 | 223
6 | CC(C)CC(NC(=O)c1ccc(N(C)Cc2cnc3nc(N)nc(N)c3n2)cc1)C(=O)O (stereo not given) | 308
7 | CCN(Cc1cnc2nc(N)nc(N)c2n1)c1ccc(C(=O)NC(CCCNC(=O)c2ccccc2)C(=O)O)cc1 (stereo not given) | 32.5
8 | CN(Cc1cnc2nc(N)nc(N)c2n1)c1ccc(C(=O)NC(CCCNC(=O)c2ccccc2)C(=O)O)cc1 (stereo not given) | 48.7
9 | CN(Cc1cnc2nc(N)nc(N)c2n1)c1ccc(C(=O)NC(CCC(=O)NC(CCC(=O)NC(CCC(=O)NC(CCC(=O)N[C@@H](CCC(=O)O)C(=O)O)C(=O)O)C(=O)O)C(=O)O)C(=O)O)cc1 (stereo not given in full) | 501
10 | CCC(C)C(NC(=O)c1ccc(N(C)Cc2cnc3nc(N)nc(N)c3n2)cc1)C(=O)O (stereo not given) | 56.9
11 | CC(C)N(Cc1cnc2nc(N)nc(N)c2n1)c1ccc(C(=O)N2C[C@H](O)C[C@H]2C(=O)O)cc1 | 784
12 | CN(Cc1cnc2nc(N)nc(N)c2n1)c1ccc(C(=O)NC(CCC(=O)NC(CCC(=O)N[C@@H](CCC(=O)O)C(=O)O)C(=O)O)C(=O)O)cc1 (stereo not given in full) | 838
13 | CN(Cc1cnc2nc(N)nc(N)c2n1)c1ccc(C(=O)N2C[C@H](O)C[C@H]2C(=O)O)cc1 | > 1000
14 | CCCN(Cc1cnc2nc(N)nc(N)c2n1)c1ccc(C(=O)NC(CCCNC(=O)c2ccccc2)C(=O)O)cc1 (stereo not given) | 11.4
15 | CC(C)N(Cc1cnc2nc(N)nc(N)c2n1)c1ccc(C(=O)NC(CCCNC(=O)c2ccccc2)C(=O)O)cc1 (stereo not given) | 14.8
16 | Nc1nc(N)c2nc(CN3CCSc4cc(C(=O)NC(CCCC(=O)O)C(=O)O)ccc43)cnc2n1 (stereo not given) | 159

Next, values leading:

Row | Ki [µM] | Structure (SMILES)
17 | 150 | Cc1cc(C(=O)NC(CCC(=O)O)C(=O)O)ccc1N(C)Cc1cnc2nc(N)nc(N)c2n1 (stereo not given)
18 | 382 | Cc1cc(C(=O)NC(CCC(=O)O)C(=O)O)ccc1NCc1cnc2nc(N)nc(N)c2n1 (stereo not given)
19 | 39.2 | Cc1cc(C(=O)NC(CCC(=O)O)C(=O)O)cc(C)c1N(C)Cc1cnc2nc(N)nc(N)c2n1 (stereo not given)
20 | 98.3 | CCN(Cc1cnc2nc(N)nc(N)c2n1)c1ccc(C(=O)NC(CCC(=O)O)C(=O)O)cc1C (stereo not given)
21 | 133 | Cc1cc(C(=O)NC(CCCC(=O)O)C(=O)O)ccc1N(C)Cc1cnc2nc(N)nc(N)c2n1 (stereo not given)
22 | 136 | C=CCN(Cc1cnc2nc(N)nc(N)c2n1)c1ccc(C(=O)NC(CCC(=O)O)C(=O)O)cc1 (stereo not given)
23 | 154 | CCCN(Cc1cnc2nc(N)nc(N)c2n1)c1ccc(C(=O)NC(CCC(=O)O)C(=O)O)cc1 (stereo not given)
24 | 173 | CC(C)N(Cc1cnc2nc(N)nc(N)c2n1)c1ccc(C(=O)NC(CCC(=O)O)C(=O)O)cc1 (stereo not given) [ISOAMINOPTERIN]
25 | 462 | CN(Cc1cnc2nc(N)nc(N)c2n1)c1ccc(C(=O)N[C@@H](CCC(=O)O)C(=O)O)cc1 [METHOTREXATE]

Source: ChEMBL document CHEMBL2074531, “Physicochemical parameters responsible for the affinity of methotrexate analogs for rat canalicular multispecific organic anion transporter (cMOAT/MRP2)” (Pharm Res, 2001)
